From ChEMBL document CHEMBL1201862, “PubChem BioAssay data set” (2004)
The source made the active and inactive calls. For most assays here, no stated cut-off is given here; in the data, actives have a measured EC50 and inactives only a lower limit.

How the values were obtained:
Protein skinhead-1 = target: T1, Protein skinhead-1 (Caenorhabditis elegans, UniProt P34707); type: functional
T1 sequence (P34707 whole entry): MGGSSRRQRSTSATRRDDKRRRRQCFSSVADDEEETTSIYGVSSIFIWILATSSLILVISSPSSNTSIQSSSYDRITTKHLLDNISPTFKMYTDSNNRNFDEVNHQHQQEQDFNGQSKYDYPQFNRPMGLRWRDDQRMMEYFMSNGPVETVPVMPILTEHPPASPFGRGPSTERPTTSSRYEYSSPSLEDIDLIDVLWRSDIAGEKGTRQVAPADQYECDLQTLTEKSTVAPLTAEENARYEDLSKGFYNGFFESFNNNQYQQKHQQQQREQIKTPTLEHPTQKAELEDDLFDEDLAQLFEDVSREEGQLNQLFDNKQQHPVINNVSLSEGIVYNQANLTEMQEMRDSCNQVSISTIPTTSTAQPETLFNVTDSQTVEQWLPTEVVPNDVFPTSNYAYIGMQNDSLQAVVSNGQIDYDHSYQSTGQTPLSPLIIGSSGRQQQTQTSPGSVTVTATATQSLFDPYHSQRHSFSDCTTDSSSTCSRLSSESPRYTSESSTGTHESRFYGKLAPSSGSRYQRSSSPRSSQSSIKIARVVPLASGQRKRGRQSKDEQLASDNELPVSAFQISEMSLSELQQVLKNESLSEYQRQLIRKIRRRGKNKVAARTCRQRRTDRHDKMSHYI

Coagulation factor XII = target: T2, Coagulation factor XII (Homo sapiens, UniProt P00748); type: functional;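 further: activated factor XIIa alpha cleaving a fluorogenic AMC peptide substrate; inhibitor potency from loss of enzyme activity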
T2 sequence (P00748 whole entry): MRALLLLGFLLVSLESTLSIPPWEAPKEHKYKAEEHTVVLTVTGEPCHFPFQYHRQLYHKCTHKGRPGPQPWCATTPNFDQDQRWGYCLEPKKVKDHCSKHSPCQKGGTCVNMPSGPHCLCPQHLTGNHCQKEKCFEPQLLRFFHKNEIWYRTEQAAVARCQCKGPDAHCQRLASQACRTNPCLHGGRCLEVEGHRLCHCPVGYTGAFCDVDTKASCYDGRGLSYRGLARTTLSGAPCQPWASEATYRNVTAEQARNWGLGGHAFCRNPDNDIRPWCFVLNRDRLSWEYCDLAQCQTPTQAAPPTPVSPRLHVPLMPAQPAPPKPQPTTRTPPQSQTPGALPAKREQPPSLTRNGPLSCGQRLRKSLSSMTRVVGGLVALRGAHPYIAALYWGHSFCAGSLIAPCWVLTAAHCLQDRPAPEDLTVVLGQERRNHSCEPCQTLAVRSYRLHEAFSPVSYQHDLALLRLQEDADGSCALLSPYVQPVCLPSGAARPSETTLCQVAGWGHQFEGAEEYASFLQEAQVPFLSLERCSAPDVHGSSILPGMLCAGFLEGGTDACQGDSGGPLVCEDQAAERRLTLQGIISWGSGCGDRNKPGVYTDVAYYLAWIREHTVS

BJ [1] = experiment: BJ-TERT fibroblast viability loss – cell-based, RAS-independent, luminescence, dose response (AID 1933); type: functional; details: Homo sapiens
BJ [2] = experiment: cells; type: functional, cell-based; details: Homo sapiens
[3] = Luminescence Cell-Based Dose Response HTS to Identify Activators of Luciferase Translation or Activity in H4 […] Cells. [Related pubchem assays: 1829 (Project Summary), 1814 (Primary HTS)]; type: functional
BJ [4] = experiment: BJ-TERT-LT-ST fibroblast viability loss – cell-based, RAS-independent, luminescence, dose response (AID 1935); type: functional; details: Homo sapiens;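 further: BJ fibroblasts immortalized with TERT plus LT and ST oncogenes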
[5] = Luminescence Cell-Based Dose Confirmation HTS to Identify Activators of 5'UTR Stem-Loop Driven Alpha-Synuclein mRNA Translation in H4 Neuroglioblastoma Cells. [Related pubchem assays: 1829 (Project Summary), 1814 (Primary HTS)]; type: functional
H4 = experiment: Luminescence Cell-Based Dose Response HTS to Identify Activators of 5'UTR Stem-Loop Driven Prion Protein mRNA Translation in H4 Neuroglioblastoma Cells. [Related pubchem assays: 1829 (Project Summary), 1814 (Primary HTS)]; type: functional; details: Homo sapiens
[6] = DRD fibroblast viability loss – cell-based, non-viral oncogenic, luminescence, dose response (AID 1934); type: functional; details: Homo sapiens
[7] = fluconazole-exposed Candida albicans growth modulators – fluorescence, retest, confirmation (AID 2467); type: functional, cell-based
[8] = NIH-3T3 fibroblast cytotoxicity, dose response, cytotoxicity control, cell-based, fluorescence, Alamar Blue, secondary assay (AID 2327); type: functional;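 further: NIH-3T3 mouse fibroblasts cultured with fluconazole at 8 µg/mL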
[9] = target: T3, Replicative DNA helicase DnaB (Mycobacterium tuberculosis, UniProt P9WMR3); experiment: DnaB intein splicing inhibitors, dose response, biochemical, cell-free fluorescence (AID 449749); type: functional
T3 sequence (P9WMR3 whole entry): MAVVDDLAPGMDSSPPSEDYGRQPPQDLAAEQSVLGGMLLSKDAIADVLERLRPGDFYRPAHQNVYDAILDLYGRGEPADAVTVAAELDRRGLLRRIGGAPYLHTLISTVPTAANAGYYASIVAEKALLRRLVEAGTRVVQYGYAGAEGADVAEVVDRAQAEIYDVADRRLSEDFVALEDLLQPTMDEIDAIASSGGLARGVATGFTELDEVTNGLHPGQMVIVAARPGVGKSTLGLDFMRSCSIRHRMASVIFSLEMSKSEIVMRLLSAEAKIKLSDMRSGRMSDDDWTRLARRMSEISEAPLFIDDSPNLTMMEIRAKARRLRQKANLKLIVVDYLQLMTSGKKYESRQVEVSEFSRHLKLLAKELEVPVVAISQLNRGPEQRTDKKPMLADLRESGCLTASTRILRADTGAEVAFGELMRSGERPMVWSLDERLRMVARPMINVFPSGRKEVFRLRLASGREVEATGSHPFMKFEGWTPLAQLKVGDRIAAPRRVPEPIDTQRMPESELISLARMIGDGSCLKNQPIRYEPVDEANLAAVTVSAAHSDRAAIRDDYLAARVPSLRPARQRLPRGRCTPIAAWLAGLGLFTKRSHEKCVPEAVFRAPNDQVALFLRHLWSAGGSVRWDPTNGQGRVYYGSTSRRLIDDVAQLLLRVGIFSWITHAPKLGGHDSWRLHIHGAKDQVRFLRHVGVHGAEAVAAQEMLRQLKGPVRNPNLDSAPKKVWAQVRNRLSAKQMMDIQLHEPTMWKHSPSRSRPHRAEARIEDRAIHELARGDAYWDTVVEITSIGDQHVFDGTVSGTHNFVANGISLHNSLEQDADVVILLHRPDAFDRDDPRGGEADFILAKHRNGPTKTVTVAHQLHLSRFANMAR

Protein RecA = target: T4, Protein RecA (Mycobacterium tuberculosis, UniProt P9WHJ3); experiment: Fluorescence Cell-Free Homogeneous Dose Retest to Identify Inhibitors of RecA-Intein Splicing Activity. [Related pubchem assays (depositor defined):AID2097, AID2223, AID489010, AID492950]; type: functional
T4 sequence (P9WHJ3 whole entry): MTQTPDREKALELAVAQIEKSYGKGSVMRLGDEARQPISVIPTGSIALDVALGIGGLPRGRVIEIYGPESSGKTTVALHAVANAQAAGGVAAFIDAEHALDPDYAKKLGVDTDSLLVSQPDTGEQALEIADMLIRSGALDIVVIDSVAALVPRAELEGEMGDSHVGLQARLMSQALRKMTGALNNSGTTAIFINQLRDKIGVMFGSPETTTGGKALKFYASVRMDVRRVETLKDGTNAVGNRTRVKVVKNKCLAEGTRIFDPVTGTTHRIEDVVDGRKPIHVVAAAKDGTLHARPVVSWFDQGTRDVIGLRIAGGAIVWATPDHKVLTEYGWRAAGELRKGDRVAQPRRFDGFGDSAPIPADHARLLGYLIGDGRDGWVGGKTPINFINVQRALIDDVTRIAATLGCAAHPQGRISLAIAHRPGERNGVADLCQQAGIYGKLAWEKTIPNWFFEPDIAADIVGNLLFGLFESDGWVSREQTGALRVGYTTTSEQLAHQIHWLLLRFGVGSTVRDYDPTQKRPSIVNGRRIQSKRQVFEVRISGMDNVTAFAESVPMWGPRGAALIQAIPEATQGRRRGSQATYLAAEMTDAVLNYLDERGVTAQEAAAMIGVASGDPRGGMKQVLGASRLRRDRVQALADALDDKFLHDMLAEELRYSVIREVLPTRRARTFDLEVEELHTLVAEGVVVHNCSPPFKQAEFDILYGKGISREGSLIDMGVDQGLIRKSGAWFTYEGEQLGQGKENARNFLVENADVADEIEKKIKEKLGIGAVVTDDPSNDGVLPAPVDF

[10] = target: T5, Calpain-2 catalytic subunit (Sus scrofa, UniProt P43367); experiment: m-calpain protease blockers, concentration series – biochemical, fluorogenic peptide substrate, dose response (AID 1420); type: functional
T5 sequence (P43367 whole entry): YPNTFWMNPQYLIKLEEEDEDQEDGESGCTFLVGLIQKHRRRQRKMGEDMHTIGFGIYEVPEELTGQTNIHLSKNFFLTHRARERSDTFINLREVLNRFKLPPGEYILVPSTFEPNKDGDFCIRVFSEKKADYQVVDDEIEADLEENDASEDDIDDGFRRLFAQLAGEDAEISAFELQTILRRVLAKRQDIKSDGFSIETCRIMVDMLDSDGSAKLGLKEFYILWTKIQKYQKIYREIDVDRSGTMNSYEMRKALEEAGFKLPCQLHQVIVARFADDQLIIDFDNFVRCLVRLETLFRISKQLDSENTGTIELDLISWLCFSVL

[11] = target: Luciferin 4-monooxygenase (Photinus pyralis, UniProt P08659); experiment: inhibition of purified Photinus pyralis luciferase – biochemical, luminescence, dose response (AID 1891)
Streptokinase A = target: T6, Streptokinase A (Streptococcus pyogenes serotype M1, UniProt P10520); experiment: viability-normalized secreted streptokinase activity reduction – plasminogen activation absorbance, OD405, dose response (AID 1914); type: functional, Streptococcus pyogenes M1 GAS;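 further: secreted streptokinase activity via plasminogen activation per viability signal from cell pellet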
T6 sequence (P10520 whole entry): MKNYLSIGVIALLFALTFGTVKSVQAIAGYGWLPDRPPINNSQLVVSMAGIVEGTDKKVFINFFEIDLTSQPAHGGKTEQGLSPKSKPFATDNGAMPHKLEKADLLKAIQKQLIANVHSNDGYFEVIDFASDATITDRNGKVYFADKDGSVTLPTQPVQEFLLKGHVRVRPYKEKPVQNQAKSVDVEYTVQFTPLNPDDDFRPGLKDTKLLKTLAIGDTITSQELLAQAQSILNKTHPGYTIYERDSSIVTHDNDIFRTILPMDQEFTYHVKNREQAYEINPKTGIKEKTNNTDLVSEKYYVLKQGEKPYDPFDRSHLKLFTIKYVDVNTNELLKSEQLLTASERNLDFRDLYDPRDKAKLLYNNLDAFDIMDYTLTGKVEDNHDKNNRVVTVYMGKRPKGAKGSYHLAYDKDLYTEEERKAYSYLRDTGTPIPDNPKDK

[12] = Luminescence Cell-Based Dose Confirmation HTS to Identify Inhibitors of Platelet Dense Granule Release. [Related pubchem assays: 1663 (Primary HTS), 1678 (Summary of Project)]; type: functional
[13] = system: Streptococcus sp. 'group A'; experiment: Streptococcus pyogenes SK(-)GAS viability under kanamycin – luminescence, BacTiterGlo, confirmation, counter-screen for streptokinase expression inhibitor project, dose response (AID 1900); type: functional, organism-based
Streptococcus = experiment: GAS UMAA2166 growth inhibition – luminescence, BacTiterGlo, counter-screen for streptokinase expression inhibitor project, dose response (AID 1915); type: functional, organism-based;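 further: potency for reduction of bacterial viability or growth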
[14] = target: T7, Polyadenylate-binding protein 1 (Homo sapiens, UniProt P11940); experiment: MLLE binding blockers, Cy5 peptide tracer – biochemical, fluorescence polarization, Cy5-PAM2 peptide, secondary, miRNA deadenylation inhibitor project, dose response (AID 602260); type: functional; details: read-out: IC50_Mean
[15] = target: T7, Polyadenylate-binding protein 1; experiment: MLLE domain peptide-binding blockers, IC50 – biochemical, fluorescence polarization, FITC-PAM2 peptide, dose response (AID 602259); type: functional; details: read-out: IC50_Mean

T7 sequence (P11940 whole entry, the tested form may be a part): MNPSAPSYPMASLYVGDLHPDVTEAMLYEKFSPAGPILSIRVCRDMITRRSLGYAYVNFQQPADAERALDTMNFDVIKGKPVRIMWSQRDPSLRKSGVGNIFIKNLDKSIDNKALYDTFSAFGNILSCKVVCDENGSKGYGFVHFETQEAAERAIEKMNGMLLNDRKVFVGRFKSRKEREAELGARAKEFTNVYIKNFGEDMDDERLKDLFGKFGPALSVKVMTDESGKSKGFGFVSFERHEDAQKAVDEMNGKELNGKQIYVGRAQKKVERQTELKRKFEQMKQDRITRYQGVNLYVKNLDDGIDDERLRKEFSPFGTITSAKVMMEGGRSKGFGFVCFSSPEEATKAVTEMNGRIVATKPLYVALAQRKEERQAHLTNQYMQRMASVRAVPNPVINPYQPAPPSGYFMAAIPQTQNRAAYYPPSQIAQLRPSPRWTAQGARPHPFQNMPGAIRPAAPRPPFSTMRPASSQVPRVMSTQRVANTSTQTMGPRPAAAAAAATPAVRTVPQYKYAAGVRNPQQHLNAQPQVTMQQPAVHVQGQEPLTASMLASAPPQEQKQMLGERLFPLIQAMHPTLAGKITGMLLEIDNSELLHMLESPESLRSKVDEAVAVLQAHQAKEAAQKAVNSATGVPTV
Chain of Luciferin 4-monooxygenase (P08659 whole entry): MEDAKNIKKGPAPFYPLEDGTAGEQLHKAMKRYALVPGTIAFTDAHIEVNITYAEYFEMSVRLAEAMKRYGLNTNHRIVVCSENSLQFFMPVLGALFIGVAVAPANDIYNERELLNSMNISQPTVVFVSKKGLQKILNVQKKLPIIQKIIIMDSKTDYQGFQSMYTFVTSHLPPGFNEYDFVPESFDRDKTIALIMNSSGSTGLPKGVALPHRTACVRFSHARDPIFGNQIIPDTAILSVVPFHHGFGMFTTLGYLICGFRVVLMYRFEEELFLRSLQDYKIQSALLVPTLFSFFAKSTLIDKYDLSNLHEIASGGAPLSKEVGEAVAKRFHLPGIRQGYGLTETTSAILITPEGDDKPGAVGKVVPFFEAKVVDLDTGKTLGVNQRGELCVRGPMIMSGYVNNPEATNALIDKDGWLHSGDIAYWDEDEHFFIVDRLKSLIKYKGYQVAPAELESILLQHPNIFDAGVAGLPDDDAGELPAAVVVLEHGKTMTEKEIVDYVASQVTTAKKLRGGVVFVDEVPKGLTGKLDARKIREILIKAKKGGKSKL

| SMILES | IC50 (Coagulation factor XII) | EC50 [3] | EC50 [5] | EC50 (H4) | further results |
| --- | --- | --- | --- | --- | --- |
| O=C(Oc1cncc(Cl)c1)c1ccco1 | 1.39 µM (active) | – | – | – | IC50 (Protein skinhead-1): > 100 µM (inactive) |
| Cc1ccc(C(CC(=O)NCCCN(C)C)c2ccc(OC(C)C)cc2)cc1 (stereo not given) | > 50 µM (inactive) | – | – | – | – |
| O=C(Cc1ccccc1[N+](=O)[O-])Nc1ccccc1C(=O)N1CCCC1 | > 50 µM (inactive) | – | – | – | – |
| Cc1cccc(N2C(=O)NC(=O)/C(=C\c3c(-c4ccccc4)[nH]c4ccccc34)C2=O)c1 | – | 0.511 µM (active) | > 120 µM (not active) | > 120 µM (not active) | EC50 (BJ [1]): 3.69 µM (active); EC50 (BJ [2]): 58.6 µM (active); EC50 (BJ [4]): 11.5 µM (inconclusive); EC50 [6]: 3.33 µM (active) |
| O=c1c(Cl)c(NCCCO)cnn1-c1nc2ccccc2[nH]1 | – | – | 25.2 µM (active) | 88 µM (active) | EC50 [7]: 3.47 µM (active); EC50 [8]: 9.04 µM (inconclusive); AC50 [9]: > 380 µM (inactive); EC50 (Protein RecA): 7.41 µM (active) |
| COc1ccccc1C(=O)n1nc(-c2cccnc2)nc1N | 0.503 µM (active) | – | – | – | – |
| CCn1c(O)cc(=O)nc1SCC(=O)N1CCCCC1 | > 50 µM (inactive) | – | – | – | – |
| CCOC(=O)c1nn(-c2ccc3c(c2)OCO3)cc1O | – | 15.7 µM (active) | 16.6 µM (active) | 23.9 µM (active) | – |
| O=C(NC(=O)c1csnn1)Nc1ccccc1Cl | – | 94 µM (active) | 5.61 µM (active) | > 60 µM (not active) | – |
| COCCCn1c(=O)/c(=C\c2ccccc2OC(C)C)s/c1=C(/C#N)C(=O)Nc1ccc(C(=O)O)cc1 | > 50 µM (inactive) | – | – | – | IC50 [10]: 3.61 µM (not active); EC50 [11]: > 112 µM (not active); EC50 (Streptokinase A): > 150 µM (not active); EC50 [12]: > 112 µM (not active); EC50 [13]: 1.44 µM (active); EC50 (Streptococcus): > 50 µM (not active) |
| O=C(CC(SCCO)c1ccc2c(c1)OCO2)c1cccs1 (stereo not given) | – | 119 µM (active) | 3.91 µM (active) | 9.36 µM (active) | IC50 [14]: > 66 µM (inactive); IC50 [15]: > 66 µM (inactive) |
| COc1cc(OC)cc(C(=O)NCC(=O)Nc2ccc(-c3ccccc3)cc2)c1 | – | 55.6 µM (active) | > 60 µM (not active) | 9.12 µM (active) | – |
